Measurements: paper PMC11249637, “Interaction of the Atypical Tetracyclines Chelocardin and Amidochelocardin with Renal Drug Transporters” (ACS Pharmacology & Translational Science, 2024)

Assays:
hOAT1 = biological target: T1, hOAT1 (Homo sapiens, UniProt Q4U2R8); test: Two-point inhibition of hOAT1-mediated PAH uptake in transfected HEK293 cells; type: in vitro ADME; conditions: PAH 10 μM, 1 min
T1 construct: expressed in transfected cells; host or cells: HEK293
T1 sequence (Q4U2R8 1-563): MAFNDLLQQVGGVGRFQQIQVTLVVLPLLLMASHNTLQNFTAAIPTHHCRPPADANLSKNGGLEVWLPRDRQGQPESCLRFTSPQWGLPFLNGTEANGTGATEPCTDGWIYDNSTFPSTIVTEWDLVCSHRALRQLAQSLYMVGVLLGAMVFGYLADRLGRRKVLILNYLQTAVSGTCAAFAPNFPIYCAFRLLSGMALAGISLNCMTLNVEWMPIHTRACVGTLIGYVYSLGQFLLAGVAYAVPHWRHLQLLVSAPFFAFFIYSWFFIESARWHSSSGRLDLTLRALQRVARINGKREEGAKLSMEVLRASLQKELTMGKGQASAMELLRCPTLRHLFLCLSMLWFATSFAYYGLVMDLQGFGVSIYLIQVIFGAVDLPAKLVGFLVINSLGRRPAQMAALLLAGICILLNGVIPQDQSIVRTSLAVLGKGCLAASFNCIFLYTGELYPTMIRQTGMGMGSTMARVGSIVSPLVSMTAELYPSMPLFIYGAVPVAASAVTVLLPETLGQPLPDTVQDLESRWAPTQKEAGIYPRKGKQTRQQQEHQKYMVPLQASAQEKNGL
Protocol: (§1) Well-characterized mOct1-, mOct2-, mOat1-, mOat2-, mOat3-, mMate1-, hOAT1-, hOAT3-, hOAT4-, hMRP2-, mMdr1a- and mMdr1b-transfected HEK293 cells and the respective vector-transfected control HEK293 cells were used.[42],[51],[52] All HEK293 cells (transporter-transfected and vector-transfected) were cultured in DMEM (Sigma, high glucose, 10% FBS, 1% penicillin (10,000 Units/mL)/streptomycin (10 mg/mL)) at 37°C under 5% CO2 in humidified atmosphere. The cells were routinely checked for the absence of mycoplasma infection. For the preparation of HEK293 cell monolayers, 24-well plates were pretreated with a poly-D-lysine hydrobromide solution (0.1 mg/mL). […]
(§2) For the uptake assay, the growth medium was aspirated, and each well was rinsed three times with 0.5 mL of incubation buffer (HBSS supplemented with 20 mM HEPES, pH 7.4) and incubated for 20 min at 37 °C. […] Cells were solubilized with 0.6 mL of 1N NaOH overnight and transferred into scintillation vials. ^3H and ^14C contents were measured after the addition of 2.5 mL of scintillator in a liquid scintillation counter.
(§3) The cellular protein amount was determined in parallel for each cell line (vector- and transporter-transfected) from six wells in a different 24-well reference plate using the Bradford method. […]
(§4) The inhibitory effect (I(%)) was calculated according to the formula: [drawing 5] […]

mOat3 = biological target: T2, mOat3 (Mus musculus, UniProt O88909); test: Two-point inhibition of mOat3-mediated ES uptake in transfected HEK293 cells; type: in vitro ADME; conditions: ES 1 μM, 1 min
T2 construct: expressed in transfected cells; host or cells: HEK293
T2 sequence (O88909 1-537): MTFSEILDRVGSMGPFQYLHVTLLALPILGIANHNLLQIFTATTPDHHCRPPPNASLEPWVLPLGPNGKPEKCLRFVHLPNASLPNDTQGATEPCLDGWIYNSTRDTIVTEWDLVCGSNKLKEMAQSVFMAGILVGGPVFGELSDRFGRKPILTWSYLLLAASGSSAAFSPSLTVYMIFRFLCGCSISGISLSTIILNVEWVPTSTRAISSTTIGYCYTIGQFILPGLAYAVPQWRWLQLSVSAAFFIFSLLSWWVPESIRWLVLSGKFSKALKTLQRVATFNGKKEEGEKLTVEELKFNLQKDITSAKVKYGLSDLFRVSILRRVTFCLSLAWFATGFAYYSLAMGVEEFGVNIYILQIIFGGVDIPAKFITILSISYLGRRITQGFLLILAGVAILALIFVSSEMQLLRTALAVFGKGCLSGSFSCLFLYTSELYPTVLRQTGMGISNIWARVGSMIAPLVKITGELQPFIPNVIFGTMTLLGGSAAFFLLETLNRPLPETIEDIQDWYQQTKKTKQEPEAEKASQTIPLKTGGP
Protocol: as §1, §2, §3, §4

uropathogenic E. coli = test system: uropathogenic E. coli; design: method as in PMID 38047701; conditions: cited from earlier work

| Structure (SMILES) | inhibitory effect on hOAT1 (in words) (hOAT1; 1 and 10 μM) | inhibitory effect on mOat3 (in words) (mOat3; 1 and 10 μM) | effect in ascending urinary tract infection model (in words) (uropathogenic E. coli) | inhibition at 10 µM (hOAT1; HEK293, at 10 μM, read-out: inhibitory effect on hOAT1) [%] | inhibition at 10 µM (mOat3; HEK293, at 10 μM, read-out: inhibitory effect on mOat3) [%] |
| --- | --- | --- | --- | --- | --- |
| Cc1ccc2c(C)c3c(c(O)c2c1O)C(=O)[C@@]1(O)C(=O)C(C(N)=O)=C(O)[C@@H](N)[C@H]1C3 [CDCHD, amidochelocardin] | No inhibitory effect | no inhibitory effect | pronounced effects |  |  |
| CC(=O)C1=C(O)[C@@H](N)[C@H]2Cc3c(c(O)c4c(O)c(C)ccc4c3C)C(=O)[C@@]2(O)C1=O [CHD, chelocardin] |  |  | pronounced effects | ~50 | > 50 |
